Earlier results, collected in patent US20230159896A1, “MULTI-LINEAGE CARDIOVASCULAR MICROFLUIDIC ORGAN-CHIP” (CEDARS-SINAI MEDICAL CENTER, priority 2020, published 2023).
Entries after “also recorded” stand apart in the source; their conditions may differ.

Columns and labels:
[1] = clinical, at common dose; for Cmax: read-out: Molar Cmax
[2] = for Cardiovascular side effects: patients
[3] = system: patient-specific hiPSC-CMs
[4] = system: zebrafish; settings: zebrafish model
[5] = system: PI3K/Akt; settings: hiPSC-CMs, previous study

| Compound | Peak plasma concentration (Cmax) [1] | Cmax [1] | Cardiovascular side effects [2] | further results |
| --- | --- | --- | --- | --- |
| CNC(=O)c1ccccc1Sc1ccc2c(/C=C/c3ccccn3)n[nH]c2c1 [axitinib] | 12.6 ng/mL | 900 nM |  |  |
| COc1cc2ncnc(Nc3ccc(F)c(Cl)c3)c2cc1OCCCN1CCOCC1 [gefitinib] |  |  | typically does not exhibit cardiotoxic side effects |  |
| COc1cc2nccc(Oc3ccc(NC(=O)NC4CC4)c(Cl)c3)c2cc1C(N)=O [lenvatinib] | 660 ng/mL | 1540 nM |  |  |
| Cc1ccc(Nc2nccc(N(C)c3ccc4c(C)n(C)nc4c3)n2)cc1S(N)(=O)=O [pazopanib] | 1960 ng/mL | 3650 nM | may cause heart failure or vascular toxicity |  |
| Cc1ccc(C(=O)Nc2ccc(CN3CCN(C)CC3)c(C(F)(F)F)c2)cc1C#Cc1cnc2cccnn12 [ponatinib] |  | 140 nM | severe vascular toxicity | FDA black box warning ([2]; human, in vivo): arterial occlusions and venous thromboembolisms as well as hepatotoxicity; Cytotoxicity on hiPSC-CMs relative to other TKIs ([3]; previous hiPSC-CM study): most cytotoxic of all TKIs studied |
| CNC(=O)c1cc(Oc2ccc(NC(=O)Nc3ccc(Cl)c(C(F)(F)F)c3)c(F)c2)ccn1 [regorafenib] | 2500 ng/mL | 8080 nM |  |  |
| CNC(=O)c1cc(Oc2ccc(NC(=O)Nc3ccc(Cl)c(C(F)(F)F)c3)cc2)ccn1 [sorafenib] |  |  | cause hypertension, ischemia, and cardiac side-effects; also recorded: may cause heart failure or vascular toxicity | Survival [4]: decrease survival |
| CCN(CC)CCNC(=O)c1c(C)[nH]c(/C=C2\C(=O)Nc3ccc(F)cc32)c1C [sunitinib] | 81.9 ng/mL | 1200 nM | cause hypertension, ischemia, and cardiac side-effects; also recorded: may cause heart failure or vascular toxicity | Survival [4]: decrease survival |
| COc1cc2c(Nc3ccc(Br)cc3F)ncnc2cc1OCC1CCN(C)CC1 [vandetanib] | 960 ng/mL |  |  | hiPSC-CM contractile function ([3]; clinically-relevant concentrations, TKIs with FDA black-box warnings): contractile dysfunction |
| insulin: Akt pathway activator |  |  |  | Effect of co-treatment on TKI-induced CM toxicity ([3]; co-treatment with Akt pathway activators): reversed TKI-induced CM toxicity; PI3K/Akt phosphorylation [5]: significantly enhanced |
